In ChEMBL document CHEMBL1141987, “Two new irreversible inhibitors of dihydrodipicolinate synthase: diethyl (E,E)-4-oxo-2,5-heptadienedioate and diethyl (E)-4-oxo-2-heptenedioate” (Bioorg Med Chem Lett, 2005):

Columns and labels:
[1] = biological target: T1, 4-hydroxy-tetrahydrodipicolinate synthase (Escherichia coli K-12) (UniProt P0A6L2); experiment: Inhibitory concentration against Escherichia coli dihydrodipicolinate synthase after 15 minutes
T1 sequence (whole entry): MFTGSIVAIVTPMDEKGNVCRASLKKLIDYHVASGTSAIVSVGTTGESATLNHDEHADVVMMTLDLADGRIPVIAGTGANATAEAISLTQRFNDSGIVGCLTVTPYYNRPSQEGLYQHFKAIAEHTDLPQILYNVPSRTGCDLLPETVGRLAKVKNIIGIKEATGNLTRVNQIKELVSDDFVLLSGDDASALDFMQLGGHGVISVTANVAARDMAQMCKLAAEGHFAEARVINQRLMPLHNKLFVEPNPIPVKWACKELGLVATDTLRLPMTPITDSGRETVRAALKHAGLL

[2] = biological target: T1, 4-hydroxy-tetrahydrodipicolinate synthase (Escherichia coli K-12); experiment: Inhibitory concentration against Escherichia coli dihydrodipicolinate synthase after 30 minutes

`CCOC(=O)/C=C/C(=O)CCC(=O)OCC` was tested. Which Concentration [1] did it give?
Its Concentration is 50 nM.

What about the Concentration [2] of the same compound?
Its Concentration is 50 nM.
